Test results taken from patent US6518423B1, “Benzopiperidine derivatives” (Eisai Co., Ltd., priority 1996, dated 2003).
Where a name gives a salt, the structure may show the parent alone.

Row | SMILES | melting point
1 | CN(Cc1ccc2c(c1)Nc1nccnc1S2)CC1CCC(C(=O)O)CC1 (stereo not shown) | 203 to 204 °C
2 | CS(=O)(=O)N1CCC(NCc2ccc3c(c2)Nc2nccnc2S3)CC1 | 219 to 221 °C
3 | O=C([O-])Cc1ccc(OC2CCN(Cc3ccc4c(c3)Nc3nccnc3S4)CC2)cc1.[Na+] | 261 to 265 °C (dec.)
4 | c1ccc(CN2c3ccccc3Nc3nccnc32)cc1 | 194 to 196 °C
5 | CN1c2ccc(-c3cnco3)cc2Nc2nccnc21 | 268 to 269 °C
6 | NCc1ncnc2c1ncn2Cc1ccc2c(c1)Nc1nccnc1S2 (as salt: oxalate) | 97 to 104 °C (dec.)
7 | c1ccc2c(c1)Nc1nccnc1N2 | 215 to 217 °C
8 | O=C(O)CCN1CCC(NCc2ccc3c(c2)Nc2nccnc2S3)CC1 | 130 to 134 °C
9 | O=C(NCc1ccc2c(c1)Nc1nccnc1S2)c1cccnc1 | 243 to 245 °C (dec.)
10 | COCc1ccc2c(c1)Nc1nccnc1N2C | 169 to 172 °C
11 | CCCNC(=O)Cc1ccc2c(c1)Nc1nccnc1S2 | 212 °C (dec.)
12 | CN(C)c1ncnc2c1nc(C(F)(F)F)n2Cc1ccc2c(c1)Nc1nccnc1S2 | 231 to 233 °C
13 | CCCCCCCCC/C(=C\c1ncn(Cc2ccc3c(c2)Nc2nccnc2S3)c1C)C(=O)O | 194 to 197 °C
14 | CC(C)(CCCN1CCN(Cc2ccc3c(c2)Nc2nccnc2S3)CC1)C(=O)O [751] | > 275 °C
15 | CN1c2ccc(CNC(=N)N)cc2Nc2nccnc21 | > 275 °C
16 | CN1c2ccc(C=O)cc2Nc2nccnc21 | 215 to 219 °C
17 | CN1CCCN=C1Cc1ccc2c(c1)Nc1nccnc1S2.Cl | > 280 °C
18 | CN1c2cc(C#N)ccc2Nc2nccnc21 | > 275 °C
19 | CC1CN(Cc2ccc3c(c2)Nc2nccnc2S3)CC(C)C1CC(=O)O (stereo not shown) | 200 °C (dec.)
20 | CN1c2ccc(C(O)c3nccn3S(=O)(=O)N(C)C)cc2Nc2nccnc21 (stereo not shown) | 185 to 190 °C
21 | NS(=O)(=O)NCCc1cn(Cc2ccc3c(c2)Nc2nccnc2S3)cn1 | 187 to 189 °C
22 | Cc1cc(NCc2ccc3c(c2)Nc2nccnc2S3)c2ccccc2n1 | 290 to 300 °C
23 | O=C(O)C1CC2(C1)C1CCCC2CN(Cc2ccc3c(c2)Nc2nccnc2S3)C1 (stereo not shown) | 98 to 101 °C
24 | O=C(O)C(F)C1C2CCCC1CN(Cc1ccc3c(c1)Nc1nccnc1S3)C2 (stereo not shown) | 185 to 187 °C
25 | c1cnc2ncn(Cc3ccc4c(c3)Nc3nccnc3S4)c2c1 | 265 °C (dec.)

Row | SMILES | melting point
26 | FC(c1cccnc1)c1ccc2c(c1)Nc1nccnc1S2 (stereo not shown) | 157 to 159 °C
27 | O=C(O)CSc1ccc(NCc2ccc3c(c2)Nc2nccnc2S3)cn1 | 114 to 116 °C
28 | NC(=O)C1CCCN1Cc1ccc2c(c1)Nc1nccnc1S2 (stereo not shown) | 194 to 197 °C
29 | COc1cc2c(cc1CN1CCC(CCC(C)C(=O)O)CC1)Nc1nccnc1S2 (stereo not shown) | 155 to 160 °C
30 | Cc1cccc2c1Sc1nccnc1N2 | 165 to 166 °C
31 | OCCc1ccc(NCc2ccc3c(c2)Nc2nccnc2S3)cn1 | 138 to 142 °C
32 | O=C(O)C1CCN(Cc2ccc3c(c2)Nc2nccnc2O3)CC1 | 242 to 244 °C
33 | CCOC(=O)/C=C/c1ccc2c(c1)Nc1nccnc1N2C | 190 to 191 °C
34 | c1cnc2c(n1)Nc1cc(Cn3cnc4cncnc43)ccc1S2 | 264 to 265 °C
35 | N#Cc1ccc2c(c1)Nc1nccnc1N2 | > 275 °C
36 | CC(CCC1CCN(Cc2ccc3c(c2)Nc2ccncc2S3)CC1)C(=O)O (stereo not shown) | 210 to 215 °C
37 | CNS(=O)(=O)CCC1CCN(Cc2ccc3c(c2)Nc2nccnc2S3)CC1 | 195 to 198 °C
38 | OCCCCCCOc1ccc(NCc2ccc3c(c2)Nc2nccnc2S3)cn1 | 124 to 128 °C
39 | CC(CCC1(CO)CCN(Cc2ccc3c(c2)Nc2nccnc2S3)CC1)C(=O)O (stereo not shown) | 105 to 110 °C
40 | CC(CCC1CCN(Cc2ccc3c(c2)Nc2nccnc2O3)CC1)C(=O)O (stereo not shown) | 238 to 240 °C
41 | OCc1nccn1Cc1ccc2c(c1)Nc1nccnc1S2 | 247 to 250 °C
42 | C/C(=C\C(=O)O)CC1CCN(Cc2ccc3c(c2)Nc2nccnc2S3)CC1 | 126 to 130 °C
43 | c1cnc2c(n1)Nc1cc(CN3CCC3)ccc1S2 | 158 to 161 °C
44 | COC(=O)CC1C2CCCC1CN(Cc1ccc3c(c1)N(C(C)=O)c1nccnc1S3)C2 (stereo not shown) | 160 to 162 °C
45 | CC(CCC1CCN(C(=N)Cc2ccc3c(c2)Nc2nccnc2S3)CC1)C(=O)O.Cl (stereo not shown) | 166 to 171 °C
46 | c1ccc2c(c1)CCCN2Cc1ccc2c(c1)Nc1nccnc1S2 | 208 to 210 °C
47 | c1cn(Cc2ccc3c(c2)Nc2nccnc2O3)cn1 | 252 to 255 °C
48 | Brc1nccn1Cc1ccc2c(c1)Nc1nccnc1S2 | 256 to 258 °C
49 | N#CN=C(Cc1ccc2c(c1)Nc1nccnc1S2)NCc1ccc(S(N)(=O)=O)cc1 | 241 to 245 °C
50 | Cc1nc2c(nc(C)n2Cc2ccc3c(c2)Nc2nccnc2S3)c(=O)[nH]1 | 206 to 211 °C

Row | SMILES | melting point
51 | OC1CC2CN(Cc3ccc4c(c3)Nc3nccnc3S4)CC2C1 (stereo not shown) | 192 to 195 °C
52 | O=C1CC2(CCN(Cc3ccc4c(c3)Nc3nccnc3S4)CC2)CN1 | 211 to 212 °C
53 | N/C(Cc1ccc2c(c1)Nc1nccnc1S2)=N\S(=O)(=O)C(F)(F)F | 200 to 202 °C
54 | CC(=NC#N)N1CCN(Cc2ccc3c(c2)Nc2nccnc2S3)CC1 | 234 °C (dec.)
55 | Cl.N=C(N)NCc1ccc2c(c1)Nc1nccnc1S2 | 279 to 282 °C
56 | CCC1(CC(=O)O)CCN(Cc2ccc3c(c2)Nc2nccnc2S3)CC1 | 225 to 226 °C
57 | OCCSc1ccc(NCc2ccc3c(c2)Nc2nccnc2S3)cn1 | 138 to 142 °C
58 | CC(C)NC(Cc1ccc2c(c1)Nc1nccnc1S2)=NC#N | 266 to 268 °C
59 | CS(=O)(=O)/N=C(\N)NCc1ccc2c(c1)Nc1nccnc1S2 | 244 to 245 °C
60 | c1cnc2c(n1)Nc1cc(CNCC3CCNCC3)ccc1S2 | 173 to 175 °C
61 | N/C(Cc1ccc2c(c1)Nc1nccnc1S2)=N\NS(=O)(=O)c1ccccc1 | 226 to 227 °C
62 | O=C(O)CCC1C2CCCC1CN(Cc1ccc3c(c1)Nc1nccnc1S3)C2 (stereo not shown) | 223 to 225 °C
63 | O=C(O)C=C1CC2(CCN(Cc3ccc4c(c3)Nc3nccnc3S4)CC2)C1 | 238 to 241 °C
64 | c1cnc2c(n1)Nc1cc(Cn3cnc4c(N5CCCCC5)ncnc43)ccc1S2 | 228 to 229 °C
65 | c1cc(-c2cn(Cc3ccc4c(c3)Nc3nccnc3S4)cn2)ccn1 | 157 to 158 °C
66 | CC(C)(O)CC1C2CCCC1CN(Cc1ccc3c(c1)Nc1nccnc1S3)C2 (stereo not shown) | 182 to 185 °C
67 | COC(=O)c1ccc(NCc2ccc3c(c2)Nc2nccnc2S3)nc1 | 140 to 148 °C
68 | FC(F)(c1cccnc1)c1ccc2c(c1)Nc1nccnc1S2 | 183 to 184 °C
69 | COc1cc(C2CCN(Cc3ccc4c(c3)Nc3nccnc3S4)CC2)ccc1CC(=O)O | 171 to 177 °C (dec.)
70 | Cl.N=C(N)Cc1ccc2c(c1)Nc1nccnc1S2 | > 280 °C
71 | CS(=O)(=O)N1CCCN(Cc2ccc3c(c2)Nc2nccnc2S3)CC1 | 158 to 160 °C
72 | C/C(=C\c1ncn(Cc2ccc3c(c2)Nc2nccnc2S3)c1C)C(N)=O | 280 °C (dec.)
73 | CN(C)c1ncnc2ncn(Cc3ccc4c(c3)Nc3nccnc3S4)c12 | 265 to 268 °C
